Laboratory results reported in ChEMBL document CHEMBL1201862, “PubChem BioAssay data set” (2004).
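Grown in 96-well plates, cells were treated for 48 hours with each compound at five concentrations. Insufficient inhibition: endpoint recorded as highest concentration tested. GI50 is the concentration that inhibits growth by half.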 The source made the active and inactive calls. Cut-off read from the data, not from the text of the source: active = GI50 up to about 1.1 µM and inactive = higher. Where a SMILES comes first, the peptide text is derived from it.

How the values were obtained:
Assay in all cases: NCI tumour cell line growth inhibition, 48 h
[1] = test system: COLO 205
[2] = test system: PC-3
[3] = test system: MCF7
[4] = test system: 786-0
[5] = test system: MDA-MB-231
[6] = test system: M14
[7] = test system: TK-10
[8] = test system: OVCAR-5
[9] = test system: SR
[10] = test system: HCT-15
[11] = test system: LOX IMVI
[12] = test system: OVCAR-8
[13] = test system: HOP-62
[14] = test system: IGROV-1
[15] = test system: SNB-75
[16] = test system: SF-295
[17] = test system: ACHN
[18] = test system: KM12
[19] = test system: SK-MEL-2
[20] = test system: SK-OV-3

| SMILES | GI50 [1] | GI50 [2] | GI50 [3] | GI50 [4] | GI50 [5] | GI50 [6] | GI50 [7] | GI50 [8] | GI50 [9] | GI50 [10] [µM] | GI50 [11] | GI50 [12] | GI50 [13] | GI50 [14] | GI50 [15] | GI50 [16] | GI50 [17] | GI50 [18] | GI50 [19] | GI50 [20] |
| --- | --- | --- | --- | --- | --- | --- | --- | --- | --- | --- | --- | --- | --- | --- | --- | --- | --- | --- | --- | --- |
| COc1cc2c(c(OC)c1OC)C(=O)[C@@H]1[C@H]2N1C(N)=O | 91.2 µM (inactive) | > 100 µM (inactive) | > 100 µM (inactive) | > 100 µM (inactive) | > 100 µM (inactive) | > 100 µM (inactive) | > 100 µM (inactive) | 87.3 µM (inactive) | > 100 µM (inactive) | > 100 | > 100 µM (inactive) | > 100 µM (inactive) | > 100 µM (inactive) | 94.8 µM (inactive) | 66.2 µM (inactive) | > 100 µM (inactive) | 61.1 µM (inactive) | > 100 µM (inactive) | – | – |
| CC1(C)COC(c2cccc(C(=O)c3ccccc3)c2)=N1 | 56.9 µM (inactive) | 38.9 µM (inactive) | 47.8 µM (inactive) | 61.1 µM (inactive) | 33.4 µM (inactive) | – | 90.6 µM (inactive) | > 100 µM (inactive) | 32.3 µM (inactive) | 36.2 | 38.6 µM (inactive) | 48.5 µM (inactive) | > 100 µM (inactive) | > 100 µM (inactive) | – | 40.7 µM (inactive) | 64.4 µM (inactive) | 44.6 µM (inactive) | > 100 µM (inactive) | > 100 µM (inactive) |
| COC1=C(N2CC2)C(=O)c2nc3n(c2C1=O)CCC3 | 0.656 µM (active) | 0.695 µM (active) | 0.532 µM (active) | 0.321 µM (active) | 2.72 µM (inactive) | 0.22 µM (active) | 3.23 µM (inactive) | 1.26 µM (inactive) | 0.357 µM (active) | 0.368 | 0.406 µM (active) | 1.35 µM (inactive) | 0.953 µM (active) | 1.43 µM (inactive) | 1.71 µM (inactive) | 0.815 µM (active) | 0.275 µM (active) | 1.37 µM (inactive) | – | 1.18 µM (inactive) |
| CC(OC(=O)NCn1cc(-c2ccccc2)nn1)c1ccccc1 (stereo not drawn) | 34.6 µM (inactive) | 2.39 µM (inactive) | 38.5 µM (inactive) | 88.7 µM (inactive) | 34.3 µM (inactive) | 17.8 µM (inactive) | 75.2 µM (inactive) | 49.3 µM (inactive) | 30.2 µM (inactive) | 50.6 | 75 µM (inactive) | 44.4 µM (inactive) | > 100 µM (inactive) | 35.4 µM (inactive) | – | 43.8 µM (inactive) | 61.2 µM (inactive) | 37.7 µM (inactive) | 37.8 µM (inactive) | – |
| COc1ccc(/N=N/c2c(C)c(C#N)c(=S)n(C3OC(COC(C)=O)C(OC(C)=O)C(OC(C)=O)C3OC(C)=O)c2C)cc1 (stereo not drawn) | > 100 µM (inactive) | > 100 µM (inactive) | > 100 µM (inactive) | 22.5 µM (inactive) | 21.7 µM (inactive) | 90.6 µM (inactive) | > 100 µM (inactive) | > 100 µM (inactive) | > 100 µM (inactive) | – | > 100 µM (inactive) | – | 64.3 µM (inactive) | > 100 µM (inactive) | 16.1 µM (inactive) | 57.5 µM (inactive) | > 100 µM (inactive) | > 100 µM (inactive) | – | 54.5 µM (inactive) |
| NC(=O)C1CCCN1C(=O)C(N)Cc1ccccc1 (stereo not drawn) (H-Phe-Pro-NH2; configuration not given here) | > 100 µM (inactive) | > 100 µM (inactive) | > 100 µM (inactive) | – | > 100 µM (inactive) | > 100 µM (inactive) | > 100 µM (inactive) | > 100 µM (inactive) | > 100 µM (inactive) | > 100 | > 100 µM (inactive) | > 100 µM (inactive) | > 100 µM (inactive) | > 100 µM (inactive) | – | > 100 µM (inactive) | > 100 µM (inactive) | – | – | – |
| CCOC(=O)c1nnsc1NN | > 100 µM (inactive) | > 100 µM (inactive) | 60.5 µM (inactive) | 39.3 µM (inactive) | 53.8 µM (inactive) | 90.6 µM (inactive) | > 100 µM (inactive) | > 100 µM (inactive) | – | > 100 | 30.1 µM (inactive) | > 100 µM (inactive) | > 100 µM (inactive) | > 100 µM (inactive) | > 100 µM (inactive) | > 100 µM (inactive) | > 100 µM (inactive) | 95.3 µM (inactive) | > 100 µM (inactive) | > 100 µM (inactive) |
| O=c1oc(C(C(F)(F)F)C(F)(F)F)nc2ccccc12 | > 100 µM (inactive) | > 100 µM (inactive) | > 100 µM (inactive) | > 100 µM (inactive) | > 100 µM (inactive) | > 100 µM (inactive) | > 100 µM (inactive) | > 100 µM (inactive) | > 100 µM (inactive) | > 100 | > 100 µM (inactive) | > 100 µM (inactive) | > 100 µM (inactive) | > 100 µM (inactive) | – | > 100 µM (inactive) | > 100 µM (inactive) | – | > 100 µM (inactive) | > 100 µM (inactive) |
| COC(=O)[C@H](Cc1ccccc1)NC(=O)OCC1OC(n2cc(C)c(=O)[nH]c2=O)CC1N=[N+]=[N-] (stereo partly drawn) | > 100 µM (inactive) | > 100 µM (inactive) | > 100 µM (inactive) | > 100 µM (inactive) | > 100 µM (inactive) | > 100 µM (inactive) | > 100 µM (inactive) | > 100 µM (inactive) | – | > 100 | > 100 µM (inactive) | > 100 µM (inactive) | > 100 µM (inactive) | > 100 µM (inactive) | 78.3 µM (inactive) | > 100 µM (inactive) | 86.1 µM (inactive) | > 100 µM (inactive) | > 100 µM (inactive) | > 100 µM (inactive) |
| CC(C)c1ccc2nc3ccc(C(=O)NCCN(C)C)cn3c(=O)c2c1 | 16.2 µM (inactive) | 13.6 µM (inactive) | 16.3 µM (inactive) | 14.6 µM (inactive) | 15 µM (inactive) | 14.6 µM (inactive) | 17.3 µM (inactive) | 14.7 µM (inactive) | 17.5 µM (inactive) | 13.8 | – | 18.8 µM (inactive) | 15.3 µM (inactive) | 30.8 µM (inactive) | 10.4 µM (inactive) | 10.9 µM (inactive) | 27.5 µM (inactive) | 17.3 µM (inactive) | – | 17.5 µM (inactive) |
| COc1cccc(N(CN2CC=CC2=O)C(C)=O)c1 | > 100 µM (inactive) | > 100 µM (inactive) | > 100 µM (inactive) | > 100 µM (inactive) | > 100 µM (inactive) | > 100 µM (inactive) | > 100 µM (inactive) | > 100 µM (inactive) | – | > 100 | > 100 µM (inactive) | > 100 µM (inactive) | > 100 µM (inactive) | > 100 µM (inactive) | > 100 µM (inactive) | > 100 µM (inactive) | > 100 µM (inactive) | > 100 µM (inactive) | > 100 µM (inactive) | > 100 µM (inactive) |
